# Measurements from publication PMC4183567, “Cysteine Transport through Excitatory Amino Acid Transporter 3 (EAAT3)” (PLoS ONE, 2014).
# Where “and” joins values, the source holds several entries; their conditions need not be identical. Equal entries are not always repeated.
# Assays:
# EAAT3 [1] = test system: EAAT3; parameters: method as in PMID 8782106; settings: EAAT3 vs other EAATs; cited from earlier work
# [2] = Protonation state calculated with the Henderson-Hasselbalch equation; assay type: physicochemical
# EAAT3 [3] = biological target: T1, EAAT3 (Homo sapiens, UniProt P43005); assay: mEGFPpH fluorescence imaging of intracellular pH in HEK293 cells co-expressing EAAT3; settings: EAAT3 HEK293 cells
# T1 sequence (P43005 1-524): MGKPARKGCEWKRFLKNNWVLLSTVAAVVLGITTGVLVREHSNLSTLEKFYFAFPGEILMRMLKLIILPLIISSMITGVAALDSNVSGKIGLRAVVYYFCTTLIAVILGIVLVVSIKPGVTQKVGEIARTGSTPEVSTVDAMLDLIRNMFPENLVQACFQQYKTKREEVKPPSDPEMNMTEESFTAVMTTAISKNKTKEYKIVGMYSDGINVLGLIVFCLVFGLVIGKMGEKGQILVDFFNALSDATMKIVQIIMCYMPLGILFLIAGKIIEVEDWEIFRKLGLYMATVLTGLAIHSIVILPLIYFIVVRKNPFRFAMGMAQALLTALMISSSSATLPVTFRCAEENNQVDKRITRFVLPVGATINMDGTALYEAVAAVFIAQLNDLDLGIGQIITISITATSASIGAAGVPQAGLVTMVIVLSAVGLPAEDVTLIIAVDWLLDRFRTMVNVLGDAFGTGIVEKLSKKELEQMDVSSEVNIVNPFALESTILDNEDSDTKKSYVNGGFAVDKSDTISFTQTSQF
# EAAT2 [4] = biological target: T2, EAAT2 (Homo sapiens, UniProt P43004); assay: Substrate inhibition of [3H]-L-glutamate uptake in HEK293 cells expressing EAAT2; assay type: cell-based; parameters: expressed in transfected cells; host or cells: HEK293; settings: read-out: inhibition of glutamate transport; EAAT2 HEK293 cells, 1 mM inhibitor
# T2 sequence (P43004 whole entry): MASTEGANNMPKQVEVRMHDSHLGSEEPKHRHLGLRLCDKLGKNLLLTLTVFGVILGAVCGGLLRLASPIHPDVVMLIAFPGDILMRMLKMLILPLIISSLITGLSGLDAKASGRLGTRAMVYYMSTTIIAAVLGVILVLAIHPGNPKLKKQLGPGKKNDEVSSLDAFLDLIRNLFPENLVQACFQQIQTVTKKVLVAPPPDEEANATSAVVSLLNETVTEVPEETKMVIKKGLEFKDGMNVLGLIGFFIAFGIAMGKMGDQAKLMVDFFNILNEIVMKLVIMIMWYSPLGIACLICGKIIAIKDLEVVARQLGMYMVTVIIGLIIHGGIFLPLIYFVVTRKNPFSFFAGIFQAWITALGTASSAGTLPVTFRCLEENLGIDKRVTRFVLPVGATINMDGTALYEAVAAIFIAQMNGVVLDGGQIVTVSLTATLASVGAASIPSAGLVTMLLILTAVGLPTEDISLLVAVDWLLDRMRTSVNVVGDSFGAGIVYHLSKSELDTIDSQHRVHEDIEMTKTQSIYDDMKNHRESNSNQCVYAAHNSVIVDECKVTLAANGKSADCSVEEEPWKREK
# Procedure: (§1) For radiolabeled transport experiments, 2×10^6 cells were transfected in 1 mL of Opti-Mem (Life Technologies) using 6 µL of Lipofectamine 2000 (Invitrogen) with 1 µg pCMV-EAAT2 or pCMV-EAAT3 DNA and plated at 5×10^4 cells/well in 24 well Costar (Corning) plates with 0.5 mL DMEM culture media prepared as above. Following transfection and plating, cells were cultured 2–3 days prior to [^3H]-L-Glutamate transport experiments.
# (§2) Transport was allowed to proceed for 10 min and was terminated by 3 washes with cold perfusion buffer. Cells were lysed with 1% SDS/0.1N NaOH and radioactivity determined by scintillation counting. Data analysis was performed using Graphpad Prism (Graphpad Software Inc.).
# EAAT2 [5] = biological target: T2, EAAT2; assay: Two-electrode voltage clamp transport currents in Xenopus oocytes expressing EAAT2; assay type: cell-based; settings: 1 mM substrate vs 1 mM glutamate, -60 mV
# Procedure: (§3) mRNA from linearized pOTV-EAAT1, pOTV-EAAT2 and pOTV-EAAT3 was generated as previously described and resuspended in RNAase-free water and used for oocytes injections. Xenopus oocytes where injected with 50 nl of mRNA and incubated at 18°C in 96 mM NaCl, 2 mM KCl, 1.8 mM CaCl2, 1.0 mM MgCl2, 5 mM HEPES, pH 7.4 (ND96) supplemented with 2.5 mM Sodium Pyruvate and Gentamicyn for 2 to 3 days prior to using in electrophysiological recordings and radio-labeled transport experiments.
# (§4) Oocytes were held at −60 mV, and currents elicited by 200 ms voltage steps between −120 mV and +60 mV were filtered at 2 kHz (−3dB) and digitalized with a sampling rate of 10 kHz using a Digidata AD/DA converter (Molecular Devices, Sunnyvale, CA, USA). Borosilicate pipets where filled with 3 M KCl and typical resistances where 0.2 to 1 MΩ. Transport currents were determined at −60 mV in a gluconate-based ND96 solution. In order to dialyze internal chloride, oocytes were incubated 12 to 24 hours in the gluconate solution. Anion currents were determined at positive potentials (+60 mV) after exchanging the external solution to NO3-based ND96 (replacement of 96 mM NaCl with 96 mM NaNO3) solution in the absence or in the presence of 1 mM external substrates. […] Data were analyzed with a combination of pClamp 9.2 (Axon Instrument) and Sigma Plot (Jandel Scientific, San Rafael, CA, USA). […]
# EAAT2 [6] = biological target: T2, EAAT2; assay: mEGFPpH fluorescence imaging of intracellular pH in HEK293 cells co-expressing EAAT2; assay type: cell-based; parameters: expressed in transfected cells; host or cells: HEK293
# Source text: Cells expressing mEGFPpH were imaged with a Zeiss Axiovert 135T inverted microscope with a 40X NeoFluar oil immersion objective (NA1.3). A Lambda DG4 (Sutter Instrument Co.) equipped with a xenon arc lamp was used for high-speed excitation wavelength switching. Images were collected using either a Quantix (Roper Scientific, Tucson, AZ) or an Orca ER (Hammamatsu Co.) cooled CCD. For pH imaging experiments, the fluorescence filters (Omega Optical) were: excitation 405±20 and 485±7.5; dichroic 400-480-585DLRP; emission 510±11.5. Software control and data acquisition were accomplished using Axon Imaging Workbench (INDEC Biosystems) or OpenLab acquisition software (Improvision, Perkin Elmer). Cells were incubated at room temperature with continuous perfusion using standard buffer containing (in mM): 146 NaCl, 5 KCl, 5 HEPES, 2.5 CaCl2 and 1.2 MgCl2 at pH 7.35 with additions (substrates etc.) as indicated in figure legends. Acquisition exposure times were identical for both 405 nm and 485 nm excitation wavelengths adjusted so that the 510 emission was not saturated for either excitation wavelength. Prior to perfusion with buffers containing substrates, cells were perfused in standard buffer to achieve a stable base line. Fluorescence was reported as the ratio of fluorescence at 510 nm by excitation with 485 and 405 nm wavelengths (F485/F405).
# EAAT2 [7] = test system: EAAT2; parameters: method as in PMID 8782106; settings: EAAT2, low affinity; read-out: Km for cysteine transport; cited from earlier work
# EAAT3 [8] = biological target: T1, EAAT3; assay: Substrate inhibition of [3H]-L-glutamate uptake in HEK293 cells expressing EAAT3; assay type: cell-based; parameters: expressed in transfected cells; host or cells: HEK293
# Procedure: as §1, §2
# EAAT3 [9] = biological target: T1, EAAT3; assay: Two-electrode voltage clamp transport currents in Xenopus oocytes expressing EAAT3; assay type: cell-based; settings: 1 mM substrate vs 1 mM glutamate, EAAT3 oocytes, -60 mV
# Procedure: as §3
# Oocytes were held at −60 mV, and currents elicited by 200 ms voltage steps between −120 mV and +60 mV were filtered at 2 kHz (−3dB) and digitalized with a sampling rate of 10 kHz using a Digidata AD/DA converter (Molecular Devices, Sunnyvale, CA, USA). Borosilicate pipets where filled with 3 M KCl and typical resistances where 0.2 to 1 MΩ. Transport currents were determined at −60 mV in a gluconate-based ND96 solution. In order to dialyze internal chloride, oocytes were incubated 12 to 24 hours in the gluconate solution. Anion currents were determined at positive potentials (+60 mV) after exchanging the external solution to NO3-based ND96 (replacement of 96 mM NaCl with 96 mM NaNO3) solution in the absence or in the presence of 1 mM external substrates. In experiments using cysteine as a substrate, all solutions contained 2 mM dithiothreitol (DTT). Data were analyzed with a combination of pClamp 9.2 (Axon Instrument) and Sigma Plot (Jandel Scientific, San Rafael, CA, USA). Whole cell current amplitudes are shown without any subtraction protocol. Current-voltage relationships were constructed by plotting the isochronal current 6 ms after the voltage step versus the membrane potential. All data are given as the mean ± standard deviation of the mean (SDM). For evaluation the statistical relevance, the Student’s t-Test was used with an α of 0.05.
# EAAT1 = biological target: T3, EAAT1 (Homo sapiens, UniProt P43003); assay: Two-electrode voltage clamp transport currents in Xenopus oocytes expressing EAAT1; assay type: cell-based; settings: 1 mM substrate vs 1 mM glutamate, -60 mV
# T3 construct: expressed in transfected cells; host or cells: Xenopus oocytes injected with mRNA
# T3 sequence (P43003 whole entry): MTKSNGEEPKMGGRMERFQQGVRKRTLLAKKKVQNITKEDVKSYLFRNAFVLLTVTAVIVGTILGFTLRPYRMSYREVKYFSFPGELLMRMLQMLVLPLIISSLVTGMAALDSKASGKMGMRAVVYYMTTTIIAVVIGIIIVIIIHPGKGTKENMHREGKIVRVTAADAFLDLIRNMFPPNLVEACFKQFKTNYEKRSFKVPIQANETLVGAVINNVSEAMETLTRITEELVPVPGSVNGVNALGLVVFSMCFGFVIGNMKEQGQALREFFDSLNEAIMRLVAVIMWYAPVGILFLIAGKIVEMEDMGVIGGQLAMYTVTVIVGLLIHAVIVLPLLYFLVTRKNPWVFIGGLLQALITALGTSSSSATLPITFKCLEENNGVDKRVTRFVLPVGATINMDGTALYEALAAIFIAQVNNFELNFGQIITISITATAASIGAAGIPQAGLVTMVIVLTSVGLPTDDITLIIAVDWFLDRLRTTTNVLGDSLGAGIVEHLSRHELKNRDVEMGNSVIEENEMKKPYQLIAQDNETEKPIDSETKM
# Procedure: as §3, §4
# EAAT3 and ASCT1 [10] = assay: Release of preloaded [35S]-L-cysteine from Xenopus oocytes co-expressing EAAT3 and ASCT1; assay type: cell-based, human
# Procedure: mRNA from linearized pOTV-EAAT1, pOTV-EAAT2 and pOTV-EAAT3 was generated as previously described and resuspended in RNAase-free water and used for oocytes injections.
# (§5) Oocytes were washed 3 times in ND96 buffer followed by incubation for 10 min with non-radiolabeled substrates as indicated. The supernatant was removed and collected for scintillation counting, while the oocytes were lysed in 1% sodium dodecylsulfate (SDS). The oocytes lysate and supernatant were counted separately by liquid scintillation counting to determine both retained and released radioactivity respectively. Percent of released radioactivity was determined as a function of the released/(retained + released).
# EAAT3 and ASCT1 [11] = biological target: T4, EAAT3 and ASCT1 (Homo sapiens, UniProt P43005); assay: Release of preloaded [3H]-L-glutamate from Xenopus oocytes co-expressing EAAT3 and ASCT1; assay type: cell-based; settings: extracellular cysteine, concentration not given
# T4 construct: expressed in transfected cells; host or cells: Xenopus oocytes
# T4 sequence (P43005 1-524): T1 sequence (P43005 1-524)
# Procedure: as §3, §5
smiles,measurement,setting,value
"N[C@@H](CS)C(=O)O [cysteine, L-cysteine]",fold higher apparent affinity for transport (Km) than the other members of the family,EAAT3 [1],approximately 10 fold
same,fraction in thiolate form,[2]; pH 6.9,~3.8% and 4%
same,fraction in thiolate (R-S-) form,[2]; pH 8.5,~61%
same,fraction in thiolate form,[2]; pH = 7.5,~14%
same,fraction protonated,[2]; physiological pH,~90%
same,mEGFPpH fluorescence change,EAAT3 [3]; 1 mM perfusion,increase in mEGFPpH fluorescence
same,slope of fluorescence change normalized to that of 100 µM glutamate,"EAAT3 [3]; selenocysteine at 100 µM, cysteine change opposite in direction",0.28±0.03
same,inhibition at 1000 µM,EAAT2 [4],20%
same,transport current amplitude relative to glutamate transport current,EAAT2 [5],7.0±4.2%
same,mEGFPpH fluorescence change,EAAT2 [6]; 1 mM perfusion,did not produce observable fluorescence changes from baseline
same,slope of fluorescence change normalized to that of 100 µM glutamate,EAAT2 [6]; selenocysteine at 100 µM,no observable fluorescence changes
same,Km,EAAT2 [7],> 1000 µM
same,IC50,EAAT3 [8],631 ± 50 µM
same,inhibition at 1000 µM,"EAAT3 [8]; read-out: inhibition of glutamate uptake, EAAT3 HEK293 cells, 1 mM inhibitor",70%
same,transport current amplitude relative to glutamate transport current,EAAT3 [9],86±14%
same,transport current amplitude relative to glutamate transport current,EAAT1,33±1.5%
same,fold increase of [35S]-cysteine release over that released by glutamate application,EAAT3 and ASCT1 [10]; 300 µM cysteine vs 100 µM glutamate,5 fold
same,release of preloaded [35S]-L-cysteine,"EAAT3 and ASCT1 [10]; 300 µM extracellular substrate, 10 min",10%
same,release of loaded [3H]-L-glutamate,EAAT3 and ASCT1 [11],7.5%
